# Measured values from patent US6867185B2 (Bristol-Myers Squibb Company, priority 2001, dated 2005).
# Where two headings read alike, the source gives them in different places.
# Columns and labels:
# [1] = rcm bond, 1,2-DCE
# [2] = rcm bond, 1,2-dichloroethane
# [3] = biological target: T1, HCV NS3/4A protease complex, BMS strain (genotype 1a) (Hepatitis C virus genotype 1a, UniProt P27958, C1454S/C1711G); experiment: Recombinant HCV NS3/4A protease complex FRET peptide assay (BMS strain); format: biochemical; conditions: IC50, HCV NS3/4A protease FRET assay in vitro; IC50 ranges
# T1 construct: recombinant HCV NS3/4A protease complex (amino'acids 1027 to 1711); inferred from the pET21b vector and Ni-NTA purification; made in house; host or cells: Escherichia coli BL21 (DE3), pET21b
# T1 sequence (P27958 1027-1711 C1454S/C1711G, one chain of several): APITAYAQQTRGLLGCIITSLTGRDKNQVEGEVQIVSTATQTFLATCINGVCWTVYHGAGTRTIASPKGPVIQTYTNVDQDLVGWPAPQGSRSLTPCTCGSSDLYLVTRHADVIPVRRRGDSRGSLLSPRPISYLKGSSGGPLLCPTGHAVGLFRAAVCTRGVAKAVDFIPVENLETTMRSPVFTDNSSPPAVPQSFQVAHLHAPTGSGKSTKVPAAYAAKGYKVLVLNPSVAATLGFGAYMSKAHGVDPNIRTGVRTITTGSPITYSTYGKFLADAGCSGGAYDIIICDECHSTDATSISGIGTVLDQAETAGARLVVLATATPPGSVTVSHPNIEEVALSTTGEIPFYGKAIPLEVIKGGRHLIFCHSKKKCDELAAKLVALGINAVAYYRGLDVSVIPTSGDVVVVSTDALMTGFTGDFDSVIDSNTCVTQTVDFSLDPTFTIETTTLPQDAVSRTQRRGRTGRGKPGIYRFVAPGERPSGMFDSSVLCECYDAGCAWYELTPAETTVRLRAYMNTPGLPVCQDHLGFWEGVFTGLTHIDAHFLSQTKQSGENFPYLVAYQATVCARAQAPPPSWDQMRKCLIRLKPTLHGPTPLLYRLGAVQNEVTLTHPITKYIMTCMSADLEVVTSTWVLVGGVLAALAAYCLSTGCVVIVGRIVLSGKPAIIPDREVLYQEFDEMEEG
# How it was run: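 Enzyme was NS3/4A complex (aa 1027-1711) from genotype 1a BMS strain, carrying C1454S and C1711G mutations plus a three-lysine tail, expressed in E. coli and Ni-NTA/size-exclusion purified to >90% purity.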
# [4] = test system: HCV replicon in Huh7 cells; experiment: HCV replicon cell-based assay (replicon FRET assay); parameters: species or system HCV strain 1B; conditions: Hepatitis C virus, Huh-7, HCV replicon cell assay; EC50 ranges
# How it was run: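 Huh7 cells carrying a genotype 1b subgenomic replicon (neo, NS3–NS5B) were treated with compound for 4 days at 37 °C in 0.5% DMSO final. Lysates with 10 μM RET S1 FRET peptide and 150 mM NaCl were read kinetically at 340/490 nm over 21 cycles. EC50 was derived as for the enzyme IC50.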
# [5] = from 1-{[1-(2(S)-tert-butoxycarbonylamino-oct-7-enoyl)-4-(7-methoxy-2-phenylquinolin-4(R)-yloxy)-pyrrolidine-2(S)-carbonyl]-1(R)-amino]-2(S)-vinyl-cyclopropanecarboxylic acid ethyl ester, 14-membered ring, Grubbs catalyst (275 + 225 mg)
compound,measurement,setting,value
CCOC(=O)[C@@]12CC1/C=C/CCCC[C@H](C(=O)OC(C)(C)C)C(=O)N1C[C@H](Oc3cc(-c4ccccc4)nc4cc(OC)ccc34)C[C@@]1(N)C(=O)N2 (some centres unmarked),"ring closure, isolated yield",[1]; [5],8%
CCOC(=O)[C@@]12C[C@H]1/C=C/CC[C@H](NC(=O)OC(C)(C)C)C(=O)N1C[C@H](Oc3cc(-c4ccccc4)nc4cc(OC)ccc34)C[C@H]1C(=O)N2,"ring closure, isolated yield","[1]; from 1-{[1-(2(S)-tert-butoxycarbonylamino-hex-5-enoyl)-4-(7-methoxy-2-phenyl-quinolin-4(R)-yloxy)-pyrroiidine-2(S)-carbonyl]-1(R)-amino}-2(S)-vinyl-cyclopropanecarboxylic acid ethyl ester, 12-membered ring, Grubbs catalyst (2 x 70 mg), 2.02 mM",46%
CCOC(=O)[C@@]12C[C@H]1/C=C\CCCCC[C@H](NC(=O)OC(C)(C)C)C(=O)N1C[C@H](Oc3cc(-c4ccccc4)nc4cc(OC)ccc34)C[C@H]1C(=O)N2,"ring closure, isolated yield","[1]; from 1-{[1-(2(S)-tert-butoxycarbonylamino-non-8-enoyl)-4-(7-methoxy-2-phenylquinolin-4(R)-yloxy)-pyrrolidine-2(S)-carbonyl]-1(R)-amino]-2 (5)-vinylcyclopropanecarboxylic acid ethyl ester, 15-membered ring, Grubbs catalyst (3 x 150 mg), 0.83 mM",75%
CCOC(=O)[C@@]12C[C@H]1/C=C\CCCC[C@H](NC(=O)OC(C)(C)C)C(=O)N1C[C@H](Oc3cc(-c4ccccc4)nc4cc(OC)ccc34)C[C@H]1C(=O)N2,"ring closure, isolated yield",[1]; [5],20%
same,"ring closure, isolated yield","[1]; from 1-{[1-(2(S)-tert-butoxycarbonylamino-oct-7-enoyl)-4-(7-methoxy-2-phenylquinolin-4(R)-yloxy)pyrrolidine-2(S)-carbonyl]-1(R)-amino]-2(S)-vinylcyclopropanecarboxylic acid ethyl ester, 14-membered ring, Grubbs catalyst (150 + 140 + 140 mg), 0.77 mM",52%
CCOC(=O)[C@@]12C[C@H]1C=CCCCCC[C@H](NC(=O)OC(C)(C)C)C(=O)N1C[C@H](Oc3cc(-c4ccccc4)nc4cc(OC)ccc34)C[C@H]1C(=O)N2,"ring closure, yield of all isomers","[2]; from C=CCCCCC[C@H](NC(=O)OC(C)(C)C)C(=O)N1C[C@H](Oc2cc(-c3ccccc3)nc3cc(OC)ccc23)C[C@H]1C(=O)N[C@]1(C(=O)OCC)C[C@H]1C=C, Grubbs catalyst, 0.829 mM, 83.0 °C, 15.0 h",75%
CCOC(=O)[C@@]12C[C@H]1C=CCCCC[C@H](NC(=O)OC(C)(C)C)C(=O)N1C[C@H](Oc3cc(-c4ccccc4)nc4cc(OC)ccc34)C[C@H]1C(=O)N2,"ring closure, yield of all isomers","[2]; from C=CCCCC[C@H](NC(=O)OC(C)(C)C)C(=O)N1C[C@H](Oc2cc(-c3ccccc3)nc3cc(OC)ccc23)C[C@H]1C(=O)N[C@]1(C(=O)OCC)C[C@H]1C=C, Grubbs catalyst, 0.772 mM, 83.0 °C, 21.0 h",52%
same,"ring closure, yield of all isomers","[2]; from C=CCCCC[C@H](NC(=O)OC(C)(C)C)C(=O)N1C[C@H](Oc2cc(-c3ccccc3)nc3cc(OC)ccc23)C[C@H]1C(=O)N[C@]1(C(=O)OCC)C[C@H]1C=C, Grubbs catalyst, 2.02 mM, 83.0 °C, 15.0 h",28%
CCOC(=O)[C@@]12C[C@H]1C=CCCCSC[C@@H](NC(=O)OC(C)(C)C)C(=O)N1C[C@H](Oc3cc(-c4ccccc4)nc4cc(OC)ccc34)C[C@H]1C(=O)N2,"ring closure, yield of all isomers","[2]; from C=CCCCSC[C@@H](NC(=O)OC(C)(C)C)C(=O)N1C[C@H](Oc2cc(-c3ccccc3)nc3cc(OC)ccc23)C[C@H]1C(=O)N[C@]1(C(=O)OCC)C[C@H]1C=C, Grubbs II (tricyclohexylphosphine[1,3-bis(2,4,6-trimethylphenyl)-4,5-dihydroimidazol-2-ylidene][benzylidene]ruthenium(IV) dichloride), 3.48 mM, 45.0 °C, 21.0 h",42%
CCOC(=O)[C@@]12C[C@H]1C=CCCC[C@H](NC(=O)OC(C)(C)C)C(=O)N1C[C@H](Oc3cc(-c4ccccc4)nc4cc(OC)ccc34)C[C@H]1C(=O)N2,"ring closure, yield of all isomers","[2]; from C=CCCC[C@H](NC(=O)OC(C)(C)C)C(=O)N1C[C@H](Oc2cc(-c3ccccc3)nc3cc(OC)ccc23)C[C@H]1C(=O)N[C@]1(C(=O)OCC)C[C@H]1C=C, Grubbs catalyst, 2.02 mM, 83.0 °C, 15.0 h",49%
CCOC(=O)[C@@]12C[C@H]1C=CCC[C@H](NC(=O)OC(C)(C)C)C(=O)N1C[C@H](Oc3cc(-c4ccccc4)nc4cc(OC)ccc34)C[C@H]1C(=O)N2,"ring closure, yield of all isomers","[2]; from C=CCC[C@H](NC(=O)OC(C)(C)C)C(=O)N1C[C@H](Oc2cc(-c3ccccc3)nc3cc(OC)ccc23)C[C@H]1C(=O)N[C@]1(C(=O)OCC)C[C@H]1C=C, Grubbs catalyst, 2.02 mM, 83.0 °C, 15.0 h",46%
COc1ccc2c(O[C@@H]3C[C@H]4C(=O)N[C@]5(C(=O)NS(=O)(=O)C6CC6)C[C@H]5C=CCCCCC[C@H](NC(=O)OC(C)(C)C)C(=O)N4C3)ccnc2c1,"ring closure, yield of all isomers","[2]; from C=CCCCCC[C@H](NC(=O)OC(C)(C)C)C(=O)N1C[C@H](Oc2ccnc3cc(OC)ccc23)C[C@H]1C(=O)N[C@]1(C(=O)NS(=O)(=O)C2CC2)C[C@H]1C=C, Grubbs catalyst, 1.02 mM, 83.0 °C, 10.0 h",1.9%
"COc1ccc2c(O[C@@H]3C[C@H]4C(=O)N[C@]5(C(=O)NS(=O)(=O)C6CC6)CC5/C=C\CCCS(=O)(=O)C[C@H](NC(=O)OC(C)(C)C)C(=O)N4C3)cc(-c3ccccc3)nc2c1 (stereo partly drawn) [Compound 32, (1S,4R,6S,14S,18R)-7-cis-[4-Cyclopropanesulfonylaminocarbonyl-18-(7-methoxy-2-phenyl-quinolin-4-yloxy)-2,12,12,15-tetraoxo-12,16-thia-3,16-diazatricyclo[14.3.0.0^4,6]nonadec-7-en-14-yl]carbamic acid tert-butyl ester]",IC50,[3],< 50 nM
same,EC50,[4],< 50 nM
"CC(C)(C)OC(=O)N[C@H]1CCCCC/C=C\[C@@H]2C[C@@]2(C(=O)NS(=O)(=O)C2CC2)NC(=O)[C@@H]2C[C@@H](Oc3ccnc4c(C(F)(F)F)cccc34)CN2C1=O [Compound 33, (1S,4R,6S,14S,18R)-7-cis-[4-Cyclopropanesulfonylaminocarbonyl-2,15-dioxo-18-(8-trifluoromethylquinol-in-4-yloxy)-3,16-diazatricyclo[14.3.0.04,6]nonadec-7-en-14-yl]-carbamic acid tert-butyl ester]",IC50,[3],< 50 nM
same,EC50,[4],< 50 nM
"(1S,4R,6S,12S,16R)-7-trans-12-tert-butoxycarbonylamino-16-(7-methoxy-2-phenylquinolin-4-yloxy)-2,13-dioxo-3,14-diazatricyclo[12.3.0.0^4,6]hepta-dec-7-ene-4-carboxylic acid ethyl ester","ring closure, isolated yield","[1]; 13-membered ring, Grubbs catalyst (2 x 75 mg)",49%
